We go through nine molecules from paper PMC11012289, “The Discovery of New Inhibitors of Insulin-Regulated Aminopeptidase by a High-Throughput Screening of 400,000 Drug-like Compounds” (International Journal of Molecular Sciences, 2024).

Experiment [1] addresses T1, IRAP (Homo sapiens, UniProt Q9UIQ6).
T1 construct: The screen was performed with the soluble truncated IRAP enzyme; made in house
Kind of experiment: Primary fluorescence IRAP assay (L-Leucine-7-amido-4-methylcoumarin cleavage). The settings on record: for IC50: 37.5 µM L-Leucine-7-amido-4-methylcoumarin, 60 min RT, dose-response 20 µM-27.4 nM, read-out: Fluorescence IC50; for LipE: calculated from (pIC50Fluorescence − LogD). The experiment is classed as biochemical. The source says: The primary biochemical assay was developed to measure the enzymatic activity of IRAP.
To ensure biochemically sound, optimal, robust, and affordable assay conditions for large-scale screening, several factors need to be considered. […] For both primary fluorescence and orthogonal absorbance assays, non-binding 1536-well assay plates were used, and 0.05% BSA was included in the assay buffer to minimize the issues associated with protein sticking to plastics. The substrate Km values were determined in two separate experiments using two different batches of IRAP protein. For this, the IRAP progress curve was monitored every 5 min for 2 h using an Envision multimode plate reader (PerkinElmer, Waltham, MA, USA).
First, 10 nL of test compounds (4 mM) or 100% DMSO was dispensed into the 1536-well assay plates using an Echo acoustic liquid handler (Beckman Coulter, Brea, CA, USA). Then, 2 μL of protein working solution (5 × 10^−4 mg/mL) was dispensed to the negative control (min effect) and compound wells (final well concentration 2.5 × 10^−4 mg/mL) using a Certus Flex liquid dispenser (Fritz Gyger AG, Thun, Switzerland) and 2 μL assay buffer to the positive control wells (max effect) using a FLEXdrop (PerkinElmer, Waltham, MA, USA).
Figure S9. Reference compounds in Fluorescence IRAP assay with different end volumes in 1536-well format.
mg/ml) and 2 or 4 µL L -Leucine-7-amido-4-methylcoumarin (f.a.c.
Plates were measured on the Envision every 10 minutes for 140 minutes (data
shown up to 2 hours). %Effect was calculated using no protein as MAX effect (assay buffer was added instead of IRAP).

Experiment [2] deals with T1, IRAP. Kind of experiment: Orthogonal absorbance IRAP assay (L-Leucine para-nitroanilide cleavage). The experiment is classed as biochemical. The settings on record: 1 mM L-Leucine p-Nitroanilide, 120 min RT; read-out: Absorbance pIC50 (converted). The text has this:
The primary biochemical assay was developed to measure the enzymatic activity of IRAP. […] To establish an orthogonal assay, an alternative L-Leucine para-nitroanilide substrate was used, which IRAP turns over to L-Leucine and para-nitroaniline and is measurable by absorbance at 405 nm (Supplementary Figure S2B).
To ensure biochemically sound, optimal, robust, and affordable assay conditions for large-scale screening, several factors need to be considered. These include the final concentration of substrates, based on the determined substrate Km value; the assay kinetics and reaction linearity; achieving a minimal, rate limiting protein concentration; identifying optimal buffer additives and concentrations; the choice of assay plate type; the final assay volume per well; the stability of reagents; the magnitude and variance of the signal; and the potency and rank order of reference compounds. For both primary fluorescence and orthogonal absorbance assays, non-binding 1536-well assay plates were used, and 0.05% BSA was included in the assay buffer to minimize the issues associated with protein sticking to plastics. The substrate Km values were determined in two separate experiments using two different batches of IRAP protein. For this, the IRAP progress curve was monitored every 5 min for 2 h using an Envision multimode plate reader (PerkinElmer, Waltham, MA, USA). […] To evaluate if using substrate concentrations close to the determined Km values results in sufficient dynamic range within the linear range of the enzymatic reaction, Z′ and S/B were calculated for multiple time points up to 2.5 h in the presence and absence of reference compounds in both assays. The primary fluorescence assay reached an optimal Z′-value after 1 h when using 37.5 μM substrate (Supplementary Figure S5). For the absorbance, 2 h was required for the enzyme reaction time; however, using ~0.4 mM substrate was associated with increased assay variation and a poor Z′ (Supplementary Figure S6).
The orthogonal assay was performed in a black non-binding 1536-well plate (Corning 3728) and sealed with universal lids (Corning 3098). First, 20 nL of test compounds (4 mM) or 100% DMSO was dispensed into the 1536-well assay plates using an Echo acoustic liquid handler (Beckman Coulter). Then, 4 μL of protein working solution (5 × 10^−4 mg/mL) was dispensed to the negative control (min effect) and compound wells (final well concentration 2.5 × 10^−4 mg/mL) using the Certus Flex liquid dispenser (Fritz Gyger AG) and 4 μL assay buffer to the positive control wells (max effect) using the FLEXdrop (PerkinElmer). Next, 4 μL of 2 mM substrate working solution was dispensed into all wells using the FLEXdrop (final well concentration 1 mM). The assay plates were then centrifuged at 187.5× g for 30 s, incubated in the dark at RT for 120 min, and finally read on an Envision plate reader (PerkinElmer) (absorbance at 405 nm, 10 flashes per second). During the dose–response curve analysis in the orthogonal assay, 80 nL of compound (range 2.00 × 10^−3 M–2.74 × 10^−6 M) or 100% DMSO was dispensed into the assay plates using an Echo acoustic liquid handler (Beckman Coulter) with final well concentration range of 20 μM–27.4 nM compound and 1% DMSO.

Experiment [3] concerns the target T1, IRAP. Kind of experiment: Deselection fluorescence IRAP assay with 10 µM zinc. The experiment is classed as biochemical. The settings on record: 10 µM ZnSO4 in assay buffer; read-out: Fluorescence + Zn pIC50 (converted). The method, then:
To prepare the assay buffer (50 mM Tris-HCl pH 7.4, 150 mM NaCl, 0.1 mM PMSF, 0.05% BSA) of the primary and orthogonal assays, 1 M Tris-HCl was prepared by dissolving 60.57 g Trizma-base (Mw 121.14 g/mol) (Sigma 93362-250G) in 500 mL MQ water, and the pH was adjusted to 7.4 using 4 M HCl. The solution was filtered with a 0.45 μm filter and stored at room temperature (RT). Then, 2 M NaCl stock was prepared by dissolving 29.22 g NaCl (Mw 58.44 g/mol) (Sigma S7653-250G) in 250 mL MQ water. The solution was filtered with a 0.45 μm filter and stored at RT. Next, 100 mM Phenylmethanesulfonylfluoride (PMSF) stock was prepared by dissolving 1 g PMSF (Mw 174.19 g/mol) (Sigma 78830-1G) in 57.4 mL isopropanol (Sigma I9516-500ML) and stored at 4 °C. A 10% Bovine Serum Albumin (BSA) stock solution was prepared by dissolving 2 g BSA (Mw 66.5 kDa) (Sigma A7030-50G), which was dissolved in 20 mL MQ water. The solution was filtered with a 0.45 μm filter, aliquoted, and stored at −20 °C. For the deselection assay buffer (50 mM Tris-HCl pH 7.4, 150 mM NaCl, 0.1 mM PMSF, 0.05% BSA, 10 μM ZnSO4), 1 mM ZnSO4 solution was prepared by dissolving 28.8 mg ZnSO4 (Mw 287.56 g/mol) (Sigma Z0251-100G) in 100 mL MQ water. The solution was filtered with a 0.45 μm filter and stored at RT. For the TSA assay buffer (50 mM Tris HCL, 150 mM NaCl, pH 7.4), stocks of 1 M Tris HCL and 2 M NaCl were prepared as described above.

Experiment [4] concerns the target T1, IRAP. Kind of experiment: Thermal shift (TSA) IRAP assay. The settings on record: screening hits at 30 µM, 1% DMSO. The experiment is classed as binding. The source says: The Thermal shift assay (TSA) is a biophysical technique measuring protein thermal stability. The assay relies on a fluorescent dye that is quenched in an aqueous environment but fluoresces when de-solvated in non-polar environments, such as the hydrophobic pockets of proteins. The target protein is mixed with the dye and heated gradually until it becomes completely denatured; as it unfolds or melts, the dye binds to newly exposed hydrophobic regions of the protein, resulting in a significant increase in fluorescence emission detected by a PCR system. The melting temperature (Tm) is calculated from the protein melt curve, and changes in Tm (known as ΔTm) are correlated with changes in protein stability and ligand binding. […] For the TSA assay, vehicle (DMSO) or compound was dispensed into MicroAmp Endura optical qPCR plates at the desired volume using an Echo acoustic liquid handler. […] The plates were then centrifuged for 10 s at 1000 rpm and sealed with Clear PCR-compatible plate seals.

Details of experiment [5]: method as in ELF screening history. The settings on record: ref ELF screening history, cited from earlier work; for Enzyme Active: number of ELF enzyme screens in which the compound was active; for Targets active: number of ELF screens in which the compound was active; for Enzyme Active %: share of ELF enzyme targets screened; for Targets Active %: share of all ELF targets screened.

A word on the ΔTm: it is the shift of the melting midpoint relative to a reference.

T1 sequence (Q9UIQ6 155-1025 limits assumed): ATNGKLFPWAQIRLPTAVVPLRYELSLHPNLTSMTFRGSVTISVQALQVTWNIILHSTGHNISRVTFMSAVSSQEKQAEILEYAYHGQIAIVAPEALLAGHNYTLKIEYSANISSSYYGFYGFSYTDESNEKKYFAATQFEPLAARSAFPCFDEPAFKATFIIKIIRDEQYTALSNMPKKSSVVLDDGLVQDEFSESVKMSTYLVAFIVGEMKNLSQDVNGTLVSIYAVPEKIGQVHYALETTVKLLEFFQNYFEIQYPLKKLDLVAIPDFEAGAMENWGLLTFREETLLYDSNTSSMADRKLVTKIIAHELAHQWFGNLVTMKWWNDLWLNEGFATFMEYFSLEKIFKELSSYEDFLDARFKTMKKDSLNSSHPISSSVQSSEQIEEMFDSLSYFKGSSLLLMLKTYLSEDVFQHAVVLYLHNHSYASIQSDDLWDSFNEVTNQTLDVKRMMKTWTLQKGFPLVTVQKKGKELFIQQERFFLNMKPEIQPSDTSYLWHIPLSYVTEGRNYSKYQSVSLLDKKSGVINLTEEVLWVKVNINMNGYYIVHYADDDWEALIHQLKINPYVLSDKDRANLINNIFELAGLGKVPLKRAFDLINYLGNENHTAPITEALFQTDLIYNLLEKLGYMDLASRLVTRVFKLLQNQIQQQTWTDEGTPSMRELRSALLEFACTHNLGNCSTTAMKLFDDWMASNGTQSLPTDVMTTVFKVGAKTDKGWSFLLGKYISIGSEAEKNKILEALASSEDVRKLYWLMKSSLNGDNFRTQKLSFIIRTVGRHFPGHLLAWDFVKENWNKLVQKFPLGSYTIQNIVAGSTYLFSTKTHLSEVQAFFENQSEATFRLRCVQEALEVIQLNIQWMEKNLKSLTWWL

Consider `O=C(COCc1ccccc1)N1CCc2n[nH]c(-c3cccs3)c2CC1` [QHL14], for which, in experiment [1], the IC50 is 2.24 µM and the LipE is 2.42. The IC50 in experiment [2] is more than 20 µM. Further, in experiment [3], the IC50 is 2.34 µM. Further, the ΔTm at 30 µM in experiment [4] was 0.15 °C. In experiment [5], the “Enzyme Active” value is listed as 3, the Targets active was 5, the “Enzyme Active %” value is 7.3% and the “Targets Active %” value is reported as 6.6%.

Take `O=c1cc(N2CCCC2)nc2n(Cc3cc(Cl)ccc3Cl)ccn12` [QHL15]: in experiment [1], the IC50 was found to be 2.4 µM and the LipE is reported as 3.54. In addition, in experiment [2], the IC50 was more than 20 µM. Also, the IC50 in experiment [3] was 2.57 µM. The ΔTm at 30 µM in experiment [4] was -0.89 °C. Moreover, in experiment [5], the “Enzyme Active” value is given as 6, the Targets active is on record as 10, the “Enzyme Active %” value is listed as 7.1% and the “Targets Active %” value is 7.1%.

Turning to `CC(C)[C@@H](CS(=O)(=O)N(C)CC1CCc2ccccc2C1)C(=O)NO` (stereo partly drawn) [QHL16], in experiment [1], the IC50 turned out to be 2.63 µM and the LipE is 3.14. The IC50 in experiment [2] was 3.8 µM. Moreover, the IC50 in experiment [3] was 2.82 µM. Besides, the ΔTm at 30 µM in experiment [4] is 2.07 °C. In addition, in experiment [5], the “Enzyme Active” value is reported as 4, the Targets active is reported as 4, the “Enzyme Active %” value is listed as 5.1% and the “Targets Active %” value is recorded as 2.8%.

For the molecule `Cc1cc(NC(=O)Cn2cnc3sc4c(c3c2=O)CCCC4)n(-c2ccccc2)n1` [QHL17], in experiment [1], the IC50 was 2.63 µM and the LipE is on record as 2.19. In addition, the IC50 in experiment [2] was more than 20 µM. Also, in experiment [3], the IC50 is 3.24 µM. In experiment [4], the ΔTm at 30 µM stood at 0.3 °C. Moreover, in experiment [5], the “Enzyme Active” value was 4, the Targets active is on record as 5, the “Enzyme Active %” value is 4.2% and the “Targets Active %” value is listed as 3.3%.

Take `CC(C)c1cc(C(=O)N2CCc3n[nH]c(-c4cccs4)c3CC2)[nH]n1` [QHL19]: in experiment [1], the IC50 is 2.82 µM and the LipE is reported as 1.83. Also, the IC50 in experiment [2] was 16.2 µM. The IC50 in experiment [3] was 2.95 µM. For the same molecule, the ΔTm at 30 µM in experiment [4] came out at 0.3 °C. Further, in experiment [5], the “Enzyme Active” value is 4, the Targets active was 6, the “Enzyme Active %” value was 9.5% and the “Targets Active %” value is 7.9%.

`CC(C)[C@@H](CS(=O)(=O)N(C)Cc1sc2ccccc2c1Cl)C(=O)NO` [QHL20]: in experiment [1], the IC50 amounted to 2.82 µM and the LipE is 2.71. For the same molecule, in experiment [2], the IC50 is 5.75 µM. Besides, the IC50 in experiment [3] is 3.16 µM. Moreover, the ΔTm at 30 µM in experiment [4] is 4.15 °C. In addition, in experiment [5], the “Enzyme Active” value is given as 1, the Targets active is reported as 3, the “Enzyme Active %” value is on record as 1.9% and the “Targets Active %” value is 2.9%.

As to `O=C(Cc1cc(N2CCCCC2)nc(-c2cccc(F)c2)n1)NO` [QHL21], in experiment [1], the IC50 was 2.95 µM and the LipE is 2.57. Besides, the IC50 in experiment [2] was 5.62 µM. The IC50 in experiment [3] was 2.82 µM. For the same molecule, the ΔTm at 30 µM in experiment [4] is 2.66 °C. Besides, in experiment [5], the “Enzyme Active” value is given as 6, the Targets active is recorded as 9, the “Enzyme Active %” value was 6.9% and the “Targets Active %” value is recorded as 6.3%.

On to `CC(C)CC(C(=O)NO)S(=O)(=O)N1CCN(c2ccc(F)cc2)CC1` (stereo not drawn) [QHL24], for which, in experiment [1], the IC50 came to 3.09 µM and the LipE is given as 3.57. Further, the IC50 in experiment [2] is 3.02 µM. Moreover, the IC50 in experiment [3] was 5.5 µM. For the same molecule, in experiment [4], the ΔTm at 30 µM came to 4 °C. In addition, in experiment [5], the “Enzyme Active” value is on record as 2, the Targets active is given as 2, the “Enzyme Active %” value is recorded as 5.4% and the “Targets Active %” value is 3.5%.

Consider `CC(C)n1cc(C(=O)N2CCc3n[nH]c(-c4cccc(F)c4)c3CC2)cn1` [QHL25], for which, in experiment [1], the IC50 turned out to be 3.16 µM and the LipE was 2.30. Besides, in experiment [2], the IC50 was more than 20 µM. Besides, in experiment [3], the IC50 is 3.47 µM. Besides, the ΔTm at 30 µM in experiment [4] was found to be 0 °C. In experiment [5], the “Enzyme Active” value is on record as 2, the Targets active was 2, the “Enzyme Active %” value is 4.8% and the “Targets Active %” value is reported as 2.6%.
